Assay results published in ChEMBL document CHEMBL6127154, “Pursuing Polypharmacology: Benzothiopyranoindoles as G-Quadruplex Stabilizers and Topoisomerase I Inhibitors for Effective Anticancer Strategies” (ACS Med Chem Lett, 2024).
Activity calls are given as the source filed them. No cut-off for these calls is given here.

What was measured:
HCT-116 [1] = assay: Induction of DNA damage in human HCT-116 cells assessed as increase in gammaH2AX level incubated for 24 hrs by immunofluorescence staining based analysis; format: functional, cell-based
HCT-116 [2] = assay: Induction of DNA damage in human HCT-116 cells assessed as increase in 53BP1 foci positive cells incubated for 24 hrs by immunofluorescence staining based analysis; format: functional, cell-based
Quadruplex DNA [3] = assay: Thermal stabilization of human c-Kit2 G4 quadruplex DNA assessed as change in melting temperature (deltaT1/2) incubated for 10 mins by circular dichroism spectroscopic analysis (reference value: 62.4 +/-0.1 degreeC); format: nucleic-acid assay
Quadruplex DNA [4] = assay: Thermal stabilization of human c-Myc G4 quadruplex DNA assessed as change in melting temperature (deltaT1/2) incubated for 10 mins by circular dichroism spectroscopic analysis (reference value: 70.5 +/- 0.1 degreeC); format: nucleic-acid assay
Quadruplex DNA [5] = assay: Thermal stabilization of human Tel23-p G4 quadruplex DNA assessed as change in melting temperature (deltaT1/2) incubated for 10 mins by circular dichroism spectroscopic analysis (reference value: 68.2 +/- 0.1 degreeC); format: nucleic-acid assay
Quadruplex DNA [6] = assay: Thermal stabilization of human Tel23-hy G4 quadruplex DNA assessed as change in melting temperature (deltaT1/2) incubated for 10 mins by circular dichroism spectroscopic analysis (reference value: 48 +/- 0.1 degreeC); format: nucleic-acid assay
Quadruplex DNA [7] = assay: Thermal stabilization of human Tel26-hy G4 quadruplex DNA assessed as change in melting temperature (deltaT1/2) incubated for 10 mins by circular dichroism spectroscopic analysis (reference value: 55.4 +/- 0.1 degreeC); format: nucleic-acid assay

SMILES	Activity (HCT-116 [1])	Activity (HCT-116 [2])	ΔTm (Quadruplex DNA [3]) [°C]	ΔTm (Quadruplex DNA [4]) [°C]	ΔTm (Quadruplex DNA [5]) [°C]	ΔTm (Quadruplex DNA [6]) [°C]	ΔTm (Quadruplex DNA [7]) [°C]
CC[C@@]1(O)C(=O)OCc2c1cc1n(c2=O)Cc2cc3ccccc3nc2-1	Active	Active	–	–	–	–	–
COc1ccc2cc3[n+](cc2c1OC)CCc1cc2c(cc1-3)OCO2	–	–	> 20	15.5	> 20	12.7	6.8
